Measured values from ChEMBL document CHEMBL1149251, “Acetylcholinesterase inhibitory activity of scopolin and scopoletin discovered by virtual screening of natural products” (J Med Chem, 2004).

Columns and labels:
[1] = tested on: Rattus norvegicus; assay: Increase in extracellular acetylcholine at 1 uM in urethane anesthetized Sprague-Dawley rat nucleus accumbens; format: functional
[2] = tested on: Rattus norvegicus; assay: Increase in extracellular acetylcholine at 2 uM in urethane anesthetized Sprague-Dawley rat nucleus accumbens; format: functional
[3] = molecular target: T1, Acetylcholinesterase (Homo sapiens, UniProt P22303); assay: Inhibition of AChE by microplate assay
[4] = tested on: Rattus norvegicus; assay: Increase in extracellular acetylcholine in urethane anesthetized Sprague-Dawley rat nucleus accumbens; format: functional
[5] = tested on: Rattus norvegicus; assay: Increase in extracellular acetylcholine in urethane anesthetized Sprague-Dawley rat nucleus accumbens at 2 umol relative to basal release; format: functional
[6] = molecular target: T1, Acetylcholinesterase; assay: Inhibition of AChE at 1000 uM by microplate assay

T1 sequence (P22303 whole entry): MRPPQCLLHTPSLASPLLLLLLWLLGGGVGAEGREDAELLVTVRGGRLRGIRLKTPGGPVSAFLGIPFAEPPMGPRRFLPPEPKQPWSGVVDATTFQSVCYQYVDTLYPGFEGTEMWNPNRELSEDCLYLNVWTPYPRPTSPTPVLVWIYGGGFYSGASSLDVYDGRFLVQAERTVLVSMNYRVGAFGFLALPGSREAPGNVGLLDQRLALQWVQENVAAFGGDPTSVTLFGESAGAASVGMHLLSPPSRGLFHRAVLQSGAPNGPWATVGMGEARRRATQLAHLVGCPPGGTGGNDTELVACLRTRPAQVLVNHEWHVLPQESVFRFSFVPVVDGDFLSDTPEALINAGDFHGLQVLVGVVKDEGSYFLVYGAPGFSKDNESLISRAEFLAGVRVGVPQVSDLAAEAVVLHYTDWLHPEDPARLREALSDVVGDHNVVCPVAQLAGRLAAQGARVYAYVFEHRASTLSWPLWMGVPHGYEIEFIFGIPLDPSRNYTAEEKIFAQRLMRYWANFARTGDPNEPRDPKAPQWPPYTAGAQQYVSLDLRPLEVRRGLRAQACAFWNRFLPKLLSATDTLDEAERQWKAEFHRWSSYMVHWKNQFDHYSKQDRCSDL

SMILES | Activity [1] | Activity [2] | IC50 [3] [µM] | Activity [4] | Activity [5] [%] | Activity [3] | inhibition [6] [%]
COc1ccc2c3c1O[C@H]1C[C@@H](O)C=C[C@@]31CCN(C)C2 [GALANTAMINE] | 1.78 | 1.68 |  |  |  |  | 
COc1cc2ccc(=O)oc2cc1O [SCOPOLETIN] |  |  | 169 | 1.74 | 170 |  | 
COc1cc2ccc(=O)oc2cc1O[C@@H]1O[C@H](CO)[C@@H](O)[C@H](O)[C@H]1O [SCOPOLIN] |  |  |  | 3.18 | 300 | Dose-dependent effect | 30.1
